Results on 29 compounds are retold here after patent publication US5622947A, “Benzoheterocyclic compounds and vasopressin antagonist and oxytocin antagonist compositions containing a benzoheterocyclic compound” (Otsuka Pharmaceutical Co., Ltd., priority 1992, dated 1997).

Counter-ions that a name gives are not always drawn.

For this assay, the target named is T1, Oxytocin receptor (uterin muscle membrane preparation) (Rattus norvegicus, UniProt P70536).
T1 construct: was homogenized, which was used as a membrane; from tissue; host or cells: uterine muscle membranes from diethylstilbestrol-treated animals
T1 sequence (P70536 1-388): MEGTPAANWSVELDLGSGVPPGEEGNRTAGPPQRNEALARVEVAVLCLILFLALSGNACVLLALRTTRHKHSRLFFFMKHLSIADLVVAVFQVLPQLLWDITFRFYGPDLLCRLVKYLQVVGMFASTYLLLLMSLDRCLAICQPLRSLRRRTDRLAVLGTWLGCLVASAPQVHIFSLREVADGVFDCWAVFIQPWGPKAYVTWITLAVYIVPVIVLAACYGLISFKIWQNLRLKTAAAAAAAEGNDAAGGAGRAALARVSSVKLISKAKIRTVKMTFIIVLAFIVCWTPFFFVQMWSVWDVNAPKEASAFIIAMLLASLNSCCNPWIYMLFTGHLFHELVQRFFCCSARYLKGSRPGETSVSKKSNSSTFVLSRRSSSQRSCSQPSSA
Put plainly: Oxytocin receptor binding assay. Conditions: [3H]-oxytocin 10^-9 M, 25°, one hour, pH 8.0, uterin muscle membrane, DES-treated. How it is done: Test-5 Oxytocin receptor binding assay
In accordance with Chan's method [by W. Y. Chan, et al.: Endocrinology, 126, 2095-2101 (1990)], the uterin muscle benn injected subcutaneously with diethylstilbe-sterol (DES) the day before and was homogenized, which was used as a membrane prepara tion. The membrane preparation (0.2 mg), [^3 H]-oxytocin (100,000 dpm, 10^-9 M), a test compound (10^-9 to 10^-5 M) were incubated at 25°. for one hour in 100 mM Tris-HCl buffer (pH=8.0, 250 μl) containing 5 mM MgCl2, 1 mM EDTA and 0.1% BSA. The mixture was filtered through a glass filter (GF/F) so as to separate the membrane preparation combining with [^3 H]-oxytocin, then, was washed twicw with the buffer (5 ml). The glass filter was put into a vial and mixed with Aquasole (a liquid scintillation cocktail). The amount of [^3 H]-oxytocin combining w ith the membrane was measured by a liquid scintillation counter. The rate of the inhibitory effect of the test compound was calculated according to the equation as follows: […]
C1 : the amount of [^3 H]-oxytocin combining with the membrane in the presence of a test compound (in known amount),
C0 : the amount of [^3 H]-oxytocin combinig with the membrane in the absence of a test compound,
B: the amount of [^3 H]-oxytocin combining with the membrane in the presence of the excess amount of oxytocin (5×10^-6 M).
The results are expressed as IC50 values, which is the concentration of the test compound required to achieve the inhibitory effect in the rate of 50%.
For the compound `COc1cc(NC(=O)c2ccccc2C)ccc1C(=O)N1CCCC(OC(=O)CN2CCOCC2)c2cc(Cl)ccc21` (centres unmarked) [Example 17, 5-(2-Morpholinoacetyloxy)-7-chloro-1-[2-methoxy-4-(2-methylbenzoylamino)benzoyl]-2,3,4,5-tetrahydro-1H-benzoazepine], the IC50 worked out at 46 nM.
To `COc1cc(C(=O)N2CCCC(CC(=O)N(C)C)c3cc(Cl)ccc32)ccc1NC(=O)c1ccccc1C` (centres unmarked) [Example 32, 5-Dimethylaminocarbonylmethyl-7-chloro-1-[3-methoxy-4-(2-methylbenzoylamino)benzoyl]-2,3,4,5-tetrahydro-1H-benzoazepine] belongs 610 nM; to `COc1cc(NC(=O)c2ccccc2Br)ccc1C(=O)N1CCCC(CC(=O)N2CCC(NC(C)=O)CC2)c2cc(F)ccc21` (centres unmarked) [Example 60, 5-[(4-Acetylamino-1-piperidinyl)carbonylmethyl]-7-fluoro-1-[2-methoxy-4-(2-bromobenzoylamino)benzoyl]-2,3,4,5-tetrahydro-1H-benzoazepine], 99 nM; to `COc1cc(NC(=O)Cc2ccccc2C)ccc1C(=O)N1CCCC(OC(=O)CN(C)C)c2cc(Cl)ccc21` (centres unmarked) [Example 68, 5-(2-Dimethylaminoacetyloxy)-7-chloro-1-{2-methoxy-4-[2-(2-methylphenyl)acetylamino]benzoyl}-2,3,4,5-tetrahydro-1H-benzoazepine], 230 nM.
The value for `Cc1ccccc1CC(=O)Nc1ccc(C(=O)N2CCCC(O)c3cc(Cl)ccc32)cc1` (centres unmarked) [Example 106, 5-Hydroxy-7-chloro-1-{4-[2-(2-methylphenyl)acetylamino]benzoyl}-2,3,4,5-tetrahydro-1H-benzoazepine] was 600 nM; that for `COc1cc(C(=O)N2CCCC(OC(=O)[C@@H](N)CCCCN)c3cc(Cl)ccc32)ccc1NC(=O)c1ccccc1C` (some centres unmarked) [Example 107] was 1300 nM; that for `Cc1ccccc1C(=O)Nc1ccc(C(=O)N2CCCC(CC(=O)N3CCN(C)CC3)c3cc(Cl)ccc32)c(Cl)c1` (centres unmarked) [Example 108] was 1900 nM.
The value for `Cc1ccccc1C(=O)Nc1ccc(C(=O)N2CCCC(CC(=O)N3CCN(C)CC3)c3cc(Cl)ccc32)cc1` (centres unmarked) [Example 109] was 360 nM; that for `COc1cc(NC(=O)c2ccccc2C)ccc1C(=O)N1CCCC(CC(=O)N2CCC(N(C)C)CC2)c2cc(F)ccc21` (centres unmarked) [Example 110] was 220 nM; that for `Cc1ccccc1C(=O)Nc1ccc(C(=O)N2CCCC(CC(=O)N(C)C)c3cc(Cl)ccc32)cc1` (centres unmarked) [Example 111, 5-Dimethylaminocarbonylmethyl-7-chloro-1-[4-(2-methylbenzoylamino)benzoyl]-2,3,4,5-tetrahydro-1H-benzoazepine] was 250 nM.
In the case of `Cc1ccccc1C(=O)Nc1ccc(C(=O)N2CCCC(CC(N)=O)c3cc(Cl)ccc32)cc1` (centres unmarked) [Example 112, 5-Carbamoylmethyl-7-chloro-1-[4-(2-methylbenzoylamino)benzoyl]-2,3,4,5-tetrahydro-1H-benzoazepine], the half-inhibitory concentration (IC50) worked out at 280 nM.
`O=C(Nc1ccc(C(=O)N2CCCC(OCCO)c3cc(Cl)ccc32)cc1)c1ccccc1Cl` (centres unmarked) [Example 113] came in with a half-maximal inhibitory concentration (IC50) of 250 nM.
The value for `COc1cc(NC(=O)c2ccccc2Br)ccc1C(=O)N1CCCC(CC(=O)N2CCCC2)c2cc(F)ccc21` (centres unmarked) [Example 114] was 170 nM; that for `Cc1ccccc1C(=O)Nc1ccc(C(=O)N2CCCC(CC(=O)N3CCNCC3)c3cc(Cl)ccc32)c(C)c1` (centres unmarked) [Example 115] was 2100 nM.
Take `CN1CCN(C(=O)CC2CCCN(C(=O)c3ccc(NC(=O)c4ccccc4Cl)cc3)c3ccc(Cl)cc32)CC1` (centres unmarked) [Example 116]: the IC50 is 380 nM.
With `COc1cc(C(=O)N2CCCC(CC(=O)N3CCN(C)CC3)c3cc(Cl)ccc32)ccc1NC(=O)c1ccccc1Cl` (centres unmarked) [Example 117, 5-(4-Methyl-1-piperazinyl)carbonylmethyl-7-chloro-1-[3-methoxy-4-(2-chlorobenzoylamino)benzoyl]-2,3,4,5-tetrahydro-1H-benzoazepine.cndot.hydrochlorid], the IC50 came out at 320 nM.
The value for `Cc1ccccc1C(=O)Nc1ccc(C(=O)N2CCCC(CC(=O)N3CCC(N(C)C)CC3)c3cc(Cl)ccc32)c(C)c1` (centres unmarked) [Example 118, 5-(4-Dimethylamino-1-piperidinyl)carbonylmethyl-7-chloro-1-[2-methyl-4-(2-methylbenzoylamino)benzoyl]-2,3,4,5-tetrahydro-1H-benzoazepine.cndot.hydrochloride] was 3200 nM; that for `COc1cc(C(=O)N2CCCC(CC(=O)N3CCN(C)CC3)c3cc(Cl)ccc32)ccc1NC(=O)c1ccccc1Br` (centres unmarked) [Example 119, 5-(4-Methyl-1-piperazinyl)carbonylmethyl-7-chloro-1-[3-methoxy-4-(2-bromobenzoylamino)benzoyl]-2,3,4,5-tetrahydro-1H-benzoazepine] was 270 nM; that for `COc1cc(C(=O)N2CCCC(CC(=O)N(C)C)c3cc(Cl)ccc32)ccc1NC(=O)c1ccccc1Br` (centres unmarked) [Example 120, 5-Dimethylaminocarbonylmethyl-7-chloro-1-[3-methoxy-4-(2-bromobenzoylamino)benzoyl]-2,3,4,5-tetrahydro-1H-benzoazepine] was 190 nM.
The value for `C=CCNCCC1CCCN(C(=O)c2ccc(NC(=O)c3ccccc3Cl)cc2C)c2ccc(Cl)cc21` (centres unmarked) [Example 121, 5-(2-Allylaminoethyl)-7-chloro-1-[2-methyl-4-(2-chlorobenzoylamino)benzoyl]-2,3,4,5-tetrahydro-1H-benzoazepine] was 2300 nM; that for `CNC(=O)CC1CCCN(C(=O)c2ccc(NC(=O)c3ccccc3Cl)cc2C)c2ccc(Cl)cc21` (centres unmarked) [Example 122, 5-Methylaminocarbonylmethyl-7-chloro-1-[2-methyl-4-(2-chlorobenzoylamino)benzoyl]-2,3,4,5-tetrahydro-1H-benzoazepine] was 2200 nM; that for `Cc1cc(NC(=O)c2ccccc2Cl)ccc1C(=O)N1CCCC(CC(N)=O)c2cc(Cl)ccc21` (centres unmarked) [Example 123] was 2200 nM.
The compound `Cc1ccccc1C(=O)Nc1ccc(C(=O)N2CCCC(CCN3CCOCC3)c3cc(Cl)ccc32)c(C)c1` (centres unmarked) [Example 124, 5-Morpholinoethyl-7-chloro-1-[2-methyl-4-(2-methylbenzoylamino)benzoyl]-2,3,4,5-tetrahydro-1H-benzoazepine] showed an IC50 of 2800 nM.
The value for `Cc1ccccc1C(=O)Nc1ccc(C(=O)N2CCCC(CC(N)=O)c3cc(Cl)ccc32)c(Cl)c1` (centres unmarked) [Example 173, 5-Carbamoylmethyl-7-chloro-1-[2-chloro-4-(2-methylbenzoylamino)benzoyl]-2,3,4,5-tetrahydro-1H-benzoazepine] was 2190 nM.
The value for `CC(=O)N1CCN(CCC2CCCN(C(=O)c3ccc(NC(=O)c4ccccc4C)cc3Cl)c3ccc(Cl)cc32)CC1` (centres unmarked) [Example 174, 5-[2-(4-Acetyl-1-piperazinyl)ethyl]-7-chloro-1-[2-chloro-4-(2-methylbenzoylamino)benzoyl]-2,3,4,5-tetrahydro-1H-benzoazepine] was 1050 nM; that for `CCN(CC)CCN(CC)C(=O)CC1CCCN(C(=O)c2ccc(NC(=O)c3ccccc3Cl)cc2OC)c2ccc(Cl)cc21` (centres unmarked) [Example 175, 5-[N-(2-Diethylaminoethyl)-N-ethylamino]-carbonylmethyl-7-chloro-1-[2-methoxy-4-(2-chlorobenzoylamino)benzoyl]-2,3,4,5-tetrahydro-1H-benzoazepine] was 13 nM.
To `COc1cc(NC(=O)c2ccccc2Cl)ccc1C(=O)N1CCCC(OCCn2cncn2)c2cc(Cl)ccc21` (centres unmarked) [Example 176, 5-[2-(1,2,4-Triazol-1-yl)ethoxy]-7-chloro-1-[2-methoxy-4-(2-chlorobenzoylamino)benzoyl]-2,3,4,5-tetrahydro-1H-benzoazepine] belongs 387 nM; to `COc1cc(NC(=O)c2ccccc2Cl)ccc1C(=O)N1CCCC(OCCNC2CCCC2)c2cc(Cl)ccc21` (centres unmarked) [Example 177, 5-(2-Cyclopentylaminoethoxy)-7-chloro-1-[2-methoxy-4-(2-chlorobenzoylamino)benzoyl]-2,3,4,5-tetrahydro-1H-benzoazepine], 258 nM; to `CN1CCN(C(=O)CC2CCCN(C(=O)c3ccc(NC(=O)c4ccccc4)cc3)c3ccc(Cl)cc32)CC1` (centres unmarked) [Example 178, 5-(4-Methyl-1-piperazinyl)carbonylmethyl-7-chloro-1-(4-benzoylaminobenzoyl)-2,3,4,5-tetrahydro-1H-benzoazepine], 969 nM.

One may read the IC50 as the concentration that gives 50% inhibition.
